The text below walks through data of patent publication US20210177803A1, “NEW PHARMACEUTICAL USE FOR THE TREATMENT OF HEART FAILURE” (Novartis AG, priority 2018, published 2021).

In series [1] the test system is patients hospitalized for acute HFrEF. On the procedure:
(§1) The starting dose and all subsequent doses were selected to optimize the highest tolerated dose based on a systolic blood pressure (SBP) algorithm.
(§2) Inclusion Criteria: • Patients ≥18 y of age with the capacity to provide written informed consent. • Currently hospitalized for a primary diagnosis of HF, including symptoms and signs of fluid overload. • Eligible patients will be randomized no earlier than 24 hours and up to ten days after presentation while still hospitalized as long as meet the following definition of stable status: • SBP≥100 mm Hg for the preceding 6 hours prior to randomization; no symptomatic hypotension • No increase (intensification) in i.v. diuretic dose within last 6 hours prior to randomization • No i.v. inotropic drugs for 24 hours prior to randomization • No i.v. vasodilators including nitrates within last 6 hours prior to randomization • Left ventricular EF 40% within the past 6 m (including current hospitalization) using echocardiography, multi gated acquisition scan (MUGA), CT scanning, MRI or ventricular angiography, provided no subsequent study documented an EF of >40% • Elevated NT-proBNP≥1600 pg/mL OR BNP≥400 pg/mL during current hospitalization.

Series [2] has the same test system. The series is described as follows: PIONEER-HF study: clinical outcomes. The series is classed as in vivo, human. To be noted: 8 weeks; LCZ696 n = 440, enalapril n = 441. On the procedure: The study rational and design is described in by Velazquez E J, et al. .in Am.
as §1, §2

Regarding `CCOC(=O)[C@H](CCc1ccccc1)N[C@@H](C)C(=O)N1CCC[C@H]1C(=O)O` [enalapril, reference compound], in series [1] (8 weeks), the Hyperkalemia is listed as 9.3%, the Symptomatic hypotension came out at 9.1% and the Worsening renal function is on record as 14.7%. In addition, in series [1] (black patients), the “Angioedema in patients who identified as black (in words)” value was “angioedema were observed”. In addition, the “Angioedema events (number in words)” value in series [1] (blinded adjudication) is listed as “six”. The Angioedema in series [1] (blinded adjudication, 8 weeks) was 1.4%. The “Patients in whom the maximum target dose had been achieved” value in series [1] (by the week 8 study visit) worked out at 62%. Further, the “Study drug prematurely discontinued prior to 8 weeks” value in series [1] (excluding discontinuation due to death) was determined as 20.3%. For the same compound, in series [2], the “Additional HF drug” value was 83 (18.8) number (%); the “Composite (death, rehospitalization for HF, LVAD implantation, or listing for cardiac transplant)” value is 74 (16.8) number (%); the Death was 15 (3.4) number (%); the “Expanded composite (composite plus unplanned outpatient visits requiring IV diuretics, or increase >50% in diuretic dose)” value was 275 (62.4) number (%). Also, in series [2], the HF rehospitalization is reported as 61 (13.8) number (%), the “Increase in diuretic dose >50%” value is given as 239 (54.2) number (%), the LVAD implantation was 1 (0.2) number (%) and the “Listing for cardiac transplant” value is 0 (0.0) number (%). Besides, the “Unplanned outpatient visits requiring intravenous diuretics” value in series [2] is reported as 2 (0.5) number (%).
